# Test: Use of additives to improve separation of Nd/Dy mixture by precipitation with L5 (Example 18)
# Assay type: physicochemical
# Conditions: 11 mM L5
# Description: Stock solutions were pipetted into plastic 1×1 cm cuvettes to prepare reaction mixtures with concentrations as follows: • 1. […] 5 mM NdCl3 • 3. 5 mM DyCl3 • 4. 500 mM MOPS pH=7 • 5. the additive of interest, in a variable concentration; if possible, stock solutions were prepared from Na^+ salt forms of the compound; if not, the stock solutions were titrated by NaOH/HCl to pH=7 prior to addition (see Table 12 for additives and concentrations)
# These aqueous reaction mixtures, each prepared to a total volume of 2.0 mL with the addition of water as necessary, were mixed by the use of a PTFE-coated stir bar on a magnetic stirrer. The cuvettes were sealed with transparent tape to prevent evaporation overnight. The reaction mixtures were stirred for 18 hours, at which point 500 μL aliquots of each reaction mixture were transferred into plastic 2 mL Eppendorf tubes and centrifuged. The supernatants were carefully pipetted out and transferred to a new set of tubes. The precipitate was dissolved by addition of 500 μL 1M HCl. The absolute concentration of Nd and Dy in each supernatant and precipitate was determined by ICP-OES.
smiles,measurement,setting,value
NCC(=O)O [glycine],Precipitate concentration [mM] Dy,additive 50 mM,3.60 mM
same,Precipitate concentration [mM] Nd,additive 50 mM,4.90 mM
same,Supernatant concentration [mM] Dy,additive 50 mM,1.01 mM
same,Supernatant concentration [mM] Nd,additive 50 mM,0.09 mM
same,Precipitate concentration [mM] Dy,additive 100 mM,2.79 mM
same,Precipitate concentration [mM] Nd,additive 100 mM,4.61 mM
same,Supernatant concentration [mM] Dy,additive 100 mM,1.99 mM
same,Supernatant concentration [mM] Nd,additive 100 mM,0.42 mM
same,Precipitate concentration [mM] Dy,additive 150 mM,2.44 mM
same,Precipitate concentration [mM] Nd,additive 150 mM,4.91 mM
same,Supernatant concentration [mM] Dy,additive 150 mM,2.25 mM
same,Supernatant concentration [mM] Nd,additive 150 mM,0.11 mM
same,Precipitate concentration [mM] Dy,additive 200 mM,1.86 mM
same,Precipitate concentration [mM] Nd,additive 200 mM,4.69 mM
same,Supernatant concentration [mM] Dy,additive 200 mM,2.85 mM
same,Supernatant concentration [mM] Nd,additive 200 mM,0.28 mM
O=CO [formate],Precipitate concentration [mM] Dy,additive 50 mM,4.33 mM
same,Precipitate concentration [mM] Nd,additive 50 mM,5.17 mM
same,Supernatant concentration [mM] Dy,additive 50 mM,0.51 mM
same,Supernatant concentration [mM] Nd,additive 50 mM,0.07 mM
same,Precipitate concentration [mM] Dy,additive 100 mM,3.84 mM
same,Precipitate concentration [mM] Nd,additive 100 mM,4.85 mM
same,Supernatant concentration [mM] Dy,additive 100 mM,1.09 mM
same,Supernatant concentration [mM] Nd,additive 100 mM,0.42 mM
same,Precipitate concentration [mM] Dy,additive 250 mM,3.33 mM
same,Precipitate concentration [mM] Nd,additive 250 mM,5.38 mM
same,Supernatant concentration [mM] Dy,additive 250 mM,1.68 mM
same,Supernatant concentration [mM] Nd,additive 250 mM,0.11 mM
same,Precipitate concentration [mM] Dy,additive 500 mM,2.09 mM
same,Precipitate concentration [mM] Nd,additive 500 mM,4.93 mM
same,Supernatant concentration [mM] Dy,additive 500 mM,2.51 mM
same,Supernatant concentration [mM] Nd,additive 500 mM,0.22 mM
O=C(O)CO [glycolate],Precipitate concentration [mM] Dy,additive 5 mM,2.61 mM
same,Precipitate concentration [mM] Nd,additive 5 mM,4.64 mM
same,Supernatant concentration [mM] Dy,additive 5 mM,1.73 mM
same,Supernatant concentration [mM] Nd,additive 5 mM,0.09 mM
same,Precipitate concentration [mM] Dy,additive 10 mM,1.71 mM
same,Precipitate concentration [mM] Nd,additive 10 mM,4.92 mM
same,Supernatant concentration [mM] Dy,additive 10 mM,2.93 mM
same,Supernatant concentration [mM] Nd,additive 10 mM,0.20 mM
same,Precipitate concentration [mM] Dy,additive 15 mM,1.11 mM
same,Precipitate concentration [mM] Nd,additive 15 mM,4.54 mM
same,Supernatant concentration [mM] Dy,additive 15 mM,3.13 mM
same,Supernatant concentration [mM] Nd,additive 15 mM,0.35 mM
same,Precipitate concentration [mM] Dy,additive 20 mM,0.82 mM
same,Precipitate concentration [mM] Nd,additive 20 mM,4.33 mM
same,Supernatant concentration [mM] Dy,additive 20 mM,3.82 mM
same,Supernatant concentration [mM] Nd,additive 20 mM,0.64 mM
OB(O)c1ccccc1 [phenylboronic acid],Precipitate concentration [mM] Dy,additive 20 mM,4.33 mM
same,Precipitate concentration [mM] Nd,additive 20 mM,5.02 mM
same,Supernatant concentration [mM] Dy,additive 20 mM,0.31 mM
same,Supernatant concentration [mM] Nd,additive 20 mM,0.08 mM
same,Precipitate concentration [mM] Dy,additive 250 mM,3.36 mM
same,Precipitate concentration [mM] Nd,additive 250 mM,4.12 mM
same,Supernatant concentration [mM] Dy,additive 250 mM,1.22 mM
same,Supernatant concentration [mM] Nd,additive 250 mM,0.87 mM
O=C(O)[C@@H](O)c1ccccc1 [s-mandelic acid],Precipitate concentration [mM] Dy,additive 20 mM,1.13 mM
same,Precipitate concentration [mM] Nd,additive 20 mM,4.52 mM
same,Supernatant concentration [mM] Dy,additive 20 mM,3.77 mM
same,Supernatant concentration [mM] Nd,additive 20 mM,0.47 mM
O=C(O)c1ccccn1 [picolinic acid],Precipitate concentration [mM] Dy,additive 20 mM,0 mM
same,Precipitate concentration [mM] Nd,additive 20 mM,0 mM
same,Supernatant concentration [mM] Dy,additive 20 mM,5 mM
same,Supernatant concentration [mM] Nd,additive 20 mM,5 mM
O=C(O)CC(O)(CC(=O)O)C(=O)O [citrate],Precipitate concentration [mM] Dy,additive 1 mM,4.03 mM
same,Precipitate concentration [mM] Nd,additive 1 mM,4.30 mM
same,Supernatant concentration [mM] Dy,additive 1 mM,0.38 mM
same,Supernatant concentration [mM] Nd,additive 1 mM,0.14 mM
same,Precipitate concentration [mM] Dy,additive 5 mM,3.62 mM
same,Precipitate concentration [mM] Nd,additive 5 mM,4.77 mM
same,Supernatant concentration [mM] Dy,additive 5 mM,1.24 mM
same,Supernatant concentration [mM] Nd,additive 5 mM,0.19 mM
same,Precipitate concentration [mM] Dy,additive 10 mM,2.38 mM
same,Precipitate concentration [mM] Nd,additive 10 mM,4.49 mM
same,Supernatant concentration [mM] Dy,additive 10 mM,2.27 mM
same,Supernatant concentration [mM] Nd,additive 10 mM,0.25 mM
same,Precipitate concentration [mM] Dy,additive 20 mM,1.21 mM
same,Precipitate concentration [mM] Nd,additive 20 mM,4.08 mM
same,Supernatant concentration [mM] Dy,additive 20 mM,3.52 mM
same,Supernatant concentration [mM] Nd,additive 20 mM,0.66 mM
O=C(O)c1cccc(C(=O)O)n1 [dipicolinic acid],Precipitate concentration [mM] Dy,additive 20 mM,0.36 mM
same,Precipitate concentration [mM] Nd,additive 20 mM,2.66 mM
same,Supernatant concentration [mM] Dy,additive 20 mM,4.29 mM
same,Supernatant concentration [mM] Nd,additive 20 mM,2.21 mM
Cl [chloride],Precipitate concentration [mM] Dy,additive 100 mM,4.58 mM
same,Precipitate concentration [mM] Nd,additive 100 mM,4.62 mM
same,Supernatant concentration [mM] Dy,additive 100 mM,0.29 mM
same,Supernatant concentration [mM] Nd,additive 100 mM,0.24 mM
same,Precipitate concentration [mM] Dy,additive 200 mM,4.48 mM
same,Precipitate concentration [mM] Nd,additive 200 mM,4.57 mM
same,Supernatant concentration [mM] Dy,additive 200 mM,0.22 mM
same,Supernatant concentration [mM] Nd,additive 200 mM,0.12 mM
same,Precipitate concentration [mM] Dy,additive 500 mM,4.29 mM
same,Precipitate concentration [mM] Nd,additive 500 mM,4.39 mM
same,Supernatant concentration [mM] Dy,additive 500 mM,0.24 mM
same,Supernatant concentration [mM] Nd,additive 500 mM,0.11 mM
same,Precipitate concentration [mM] Dy,additive 1000 mM,4.88 mM
same,Precipitate concentration [mM] Nd,additive 1000 mM,4.97 mM
same,Supernatant concentration [mM] Dy,additive 1000 mM,0.24 mM
same,Supernatant concentration [mM] Nd,additive 1000 mM,0.11 mM
O=C(O)c1ccccc1O [salicylic acid],Precipitate concentration [mM] Dy,additive 20 mM,4.36 mM
same,Precipitate concentration [mM] Nd,additive 20 mM,4.88 mM
same,Supernatant concentration [mM] Dy,additive 20 mM,0.42 mM
same,Supernatant concentration [mM] Nd,additive 20 mM,0.07 mM
N#C[S-].[Na+] [thiocyanate],Precipitate concentration [mM] Dy,additive 100 mM,4.46 mM
same,Precipitate concentration [mM] Nd,additive 100 mM,4.66 mM
same,Supernatant concentration [mM] Dy,additive 100 mM,0.31 mM
same,Supernatant concentration [mM] Nd,additive 100 mM,0.14 mM
same,Precipitate concentration [mM] Dy,additive 200 mM,4.42 mM
same,Precipitate concentration [mM] Nd,additive 200 mM,4.60 mM
same,Supernatant concentration [mM] Dy,additive 200 mM,0.51 mM
same,Supernatant concentration [mM] Nd,additive 200 mM,0.41 mM
same,Precipitate concentration [mM] Dy,additive 500 mM,4.16 mM
same,Precipitate concentration [mM] Nd,additive 500 mM,4.65 mM
same,Supernatant concentration [mM] Dy,additive 500 mM,0.72 mM
same,Supernatant concentration [mM] Nd,additive 500 mM,0.36 mM
same,Precipitate concentration [mM] Dy,additive 1000 mM,3.26 mM
same,Precipitate concentration [mM] Nd,additive 1000 mM,4.63 mM
same,Supernatant concentration [mM] Dy,additive 1000 mM,1.70 mM
same,Supernatant concentration [mM] Nd,additive 1000 mM,0.41 mM
F [fluoride],Precipitate concentration [mM] Dy,additive 5 mM,4.87 mM
same,Precipitate concentration [mM] Nd,additive 5 mM,6.21 mM
same,Supernatant concentration [mM] Dy,additive 5 mM,1.21 mM
same,Supernatant concentration [mM] Nd,additive 5 mM,0.13 mM
same,Precipitate concentration [mM] Dy,additive 10 mM,3.82 mM
same,Precipitate concentration [mM] Nd,additive 10 mM,6.15 mM
same,Supernatant concentration [mM] Dy,additive 10 mM,2.34 mM
same,Supernatant concentration [mM] Nd,additive 10 mM,0.18 mM
same,Precipitate concentration [mM] Dy,additive 15 mM,2.72 mM
same,Precipitate concentration [mM] Nd,additive 15 mM,5.68 mM
same,Supernatant concentration [mM] Dy,additive 15 mM,3.26 mM
same,Supernatant concentration [mM] Nd,additive 15 mM,0.49 mM
c1ccncc1 [pyridine],Precipitate concentration [mM] Dy,additive 20 mM,4.33 mM
same,Precipitate concentration [mM] Nd,additive 20 mM,4.90 mM
same,Supernatant concentration [mM] Dy,additive 20 mM,0.28 mM
same,Supernatant concentration [mM] Nd,additive 20 mM,0.06 mM
same,Precipitate concentration [mM] Dy,additive 250 mM,4.02 mM
same,Precipitate concentration [mM] Nd,additive 250 mM,4.67 mM
same,Supernatant concentration [mM] Dy,additive 250 mM,0.41 mM
same,Supernatant concentration [mM] Nd,additive 250 mM,0.09 mM
C[C@H](O)C(=O)O [l-lactate],Precipitate concentration [mM] Dy,additive 5 mM,3.15 mM
same,Precipitate concentration [mM] Nd,additive 5 mM,4.33 mM
same,Supernatant concentration [mM] Dy,additive 5 mM,1.59 mM
same,Supernatant concentration [mM] Nd,additive 5 mM,0.51 mM
same,Precipitate concentration [mM] Dy,additive 10 mM,2.08 mM
same,Precipitate concentration [mM] Nd,additive 10 mM,4.49 mM
same,Supernatant concentration [mM] Dy,additive 10 mM,2.47 mM
same,Supernatant concentration [mM] Nd,additive 10 mM,0.21 mM
same,Precipitate concentration [mM] Dy,additive 15 mM,1.60 mM
same,Precipitate concentration [mM] Nd,additive 15 mM,4.38 mM
same,Supernatant concentration [mM] Dy,additive 15 mM,3.21 mM
same,Supernatant concentration [mM] Nd,additive 15 mM,0.49 mM
same,Precipitate concentration [mM] Dy,additive 20 mM,1.18 mM
same,Precipitate concentration [mM] Nd,additive 20 mM,4.33 mM
same,Supernatant concentration [mM] Dy,additive 20 mM,3.57 mM
same,Supernatant concentration [mM] Nd,additive 20 mM,0.50 mM

# Reference: patent publication US20230356105A1, “TETRAAZADODECANE BASED CHELATING AGENTS FOR SEPARATION OF RARE EARTH ELEMENTS AND METHOD THEREFOR” (Ustav Organicke Chemie a Biochemie AV CR V.V.I., priority 2020, published 2023)
